Experimental findings from EPA's ToxValDB 9.5 (doi:10.2903/j.efsa.2014.3812) are described below.

One series has as its system Hypoaspis aculeifer. The settings on record: chronic/long-term.
Another series concerns Apis mellifera. The settings on record: acute, mortality.
Another series has as its system Folsomia candida. Conditions: chronic/long-term.
The next series has as its system Daphnia magna. The settings on record: chronic/long-term; duration: 21 days; reproduction.
The test system of the next series is Typhlodromus pyri. Briefly: LR50; higher = less toxic. Conditions: not reported; mortality.

Values after ≈ are worked out from the molar mass of the structure shown. Bounds are passed on as bounds.

Usually NOAEL stands for the highest dose or exposure tested at which no adverse effect was seen. Consider `O=C(O)COc1ccc(Cl)cc1Cl` [2,4-Dichlorophenoxyacetic acid], for which the NOEC is 5 mg/kg with Hypoaspis aculeifer; 63.4 mg/L in the series with Pimephales promelas (chronic/long-term, duration: 32 days, growth); 1.25 mg/kg with Folsomia candida; 38.4 mg/L with Daphnia magna; 62.5 mg/kg in the series with Tagia sp. (chronic/long-term, duration: 8 weeks). For the same molecule, the LD50 is more than 100 µg/piece in the series with Apis mellifera (dermal); 94 µg/piece in the series with Apis mellifera (oral, unspecified); 486 mg/kg-day in the series with Rattus norvegicus (acute); 500 mg/kg-day in the series with Colinus virginianus (acute, oral). For the same molecule, the LC50 came out at 100 µg/mL (≈ 452 µM) in the series on Pimephales promelas (acute, duration: 96 hours, mortality) and 350 mg/kg with Tagia sp. (acute, duration: 14 days, mortality). The no observed adverse effect level (NOAEL) in the series on Rattus norvegicus (acute, clinical signs) worked out at 75 mg/kg-day; with Rattus norvegicus (chronic), 20.6 mg/kg-day; with Rattus norvegicus (chronic, duration: 2 years, organ weight), 5 mg/kg-day; in the series on Rattus norvegicus (subchronic, duration: 90 days, oral, histopathology: nonneoplastic) it was 15 mg/kg-day; in the series on Colinus virginianus (reproduction developmental), 100 mg/kg-day. The same molecule displayed an LR50 in the series with Typhlodromus pyri of more than 3000 g/ha.
